According to US6867305B2, “Synthesis of epothilones, intermediates thereto and analogues thereof” (Sloan-Kettering Institute for Cancer Research, priority 1996, dated 2005):
Counter-ions that a name gives are not always drawn.

Tests used:
MCF-7/Adr = assay: Tumor cell growth inhibition in vitro; format: cell-based, human; details: Homo sapiens, NCI/ADR-RES, MCF-7/Adr
Experimental: (§1) The cells were cultured at an initial density of 2-5×10^4 cells per ml. […] For solid tumor cells growing in a monolayer (such as MCF-7/Adr), cytotoxicitiy of the drug was determined in 96-well microtiter plates by using the sulforhodamine B method as described by Skehan et al (23) for measuring the cellular protein content. For cells that were grown in suspension (such as CCRF-CEM and its sublines), cytotoxicitiy was measured by using the 2,-3-bis(2-methoxy-4-nitro-5-sulfophenyl)-5carboxanilide)-2H terazodium hydroxide (XTT)-microculture tetrazonium method (24) in duplicate in 96-well microtiter plates. For both methods, the absorbance of each well was measured with a microplate reader (EL-340, Bio-Tek, Burlington, Vt.). Each run entailed six or seven concentrations of the tested drugs. Dose-effect relationship data were analyzed with the median-effect plot (25) by using a previously described computer program (26).

UL-3-B/Taxol = assay: cells; details: Homo sapiens, UL-3-B/Taxol
[1] = system: UL-3-C ovarian adenocarcinoma; assay: Tumor cell growth inhibition in vitro; format: cell-based, human; details: Homo sapiens
Experimental: (§2) The fresh medium containing each drug was replenished every 7-14 days. […] In each case ,the drug-exposed cells were resuspended in fresh media for a minimum of 4 days before the experiments for the cell-growth inhibition was carried out.
(§3) The cells were cultured at an initial density of 2-5×10^4 cells per ml. They were maintained in a 5% CO2-humidified atmosphere at 37° C. in RPMI mediun 1640 (GIBCO/BRL) containing penicillin (100 units/ml), streptomycin (100 μg/ml) (GIBCO/BRL), and 5% heat-inactivated fetal bovine serum. For solid tumor cells growing in a monolayer (such as MCF-7/Adr), cytotoxicitiy of the drug was determined in 96-well microtiter plates by using the sulforhodamine B method as described by Skehan et al (23) for measuring the cellular protein content. For cells that were grown in suspension (such as CCRF-CEM and its sublines), cytotoxicitiy was measured by using the 2,-3-bis(2-methoxy-4-nitro-5-sulfophenyl)-5carboxanilide)-2H terazodium hydroxide (XTT)-microculture tetrazonium method (24) in duplicate in 96-well microtiter plates. For both methods, the absorbance of each well was measured with a microplate reader (EL-340, Bio-Tek, Burlington, Vt.). Each run entailed six or seven concentrations of the tested drugs. Dose-effect relationship data were analyzed with the median-effect plot (25) by using a previously described computer program (26).

[2] = system: MCF-7/Adr mammary xenograft; assay: Human tumor xenograft in nude mice; format: in vivo; details: i.v. infusion
[3] = system: K562 chronic myelocytic leukemia xenograft; assay: Human tumor xenograft in nude mice; format: in vivo
Experimental: FIG. 34 depicts tumor size in nude mice bearing human leukemia […] tumor following 6 mg/kg C-15-Aza-EpoB, Q2D×6 and 30 mg/kg dEpoF, Q2ED×6 (i.v. infusion […].). K562 tumor cells (1×10^7 in 0.2 mL) were inoculated to nude mice on day 0. Mice were treated with 6 mg/kg aza-EpoB, 6 h-i.v. infusion on days 20, 22, 24, 26, 28 and 30 (Δ, n=3). The same group of mice were then treated with 30 mg/kg dEpoF, 6 h-i.v. infusion on days 42, 44, 46, 48, 52, and 54 (Δ, n=3). […] The control mice (∘, n=3) received vehicle only.
K562 tumor cells (1×10^7, in 0.2 ml/mouse) were implanted s.c. on day 0. […] The control mice (∘, n=4) received vehicle, Cremophor-ethanol (1:1), only. The vertical bars indicate mean tumor size in mm^3±S.E.
(§4) Depending on the tumor type, treatment started on day 10 to day 21 when subcutaneous tumor size reached 35-200 mm^3, except otherwise indicated. Tumor size and body-weight were recorded every other day (Q2D) and, for humane reasons, the animals were sacrificed when tumor size reached ≧10% of body-weight. Each group, including untreated control, consisted of 3-5 animals unless otherwise indicated.
(§5) Athymic nude mice bearing the nu/nu gene were used for all human tumor xenografts. Outbred, Swiss-background mice were obtained from Charles River Laboratories. Male mice 8 weeks or older weighing 22 g and up were used for most experiments. The drug was administered via the tail vein for 6 hr.-i.v. infusion. Each individual mouse was confined in a perforated Falcon polypropylene tube restrainer for drug administration. Tumor volume was assessed by measuring length×width×height (or width) using a caliper. The programmable Harvard PHD2000 syringe pump (Harvard Apparatus) with multi-track was used for i.v. infusion. […] All animal studies were conducted in accordance with the guidelines of the National Institutes of Health “Guide for the Care and Use of Animals” and the protocol approved by the Memorial Sloan-Kettering Cancer Center's Institutional Animal Care and Use Committee. In keeping with the policy of this committee for the humane treatment of tumor-bearing animals, mice were euthanized when tumors reached ≧10% of their total body weight.
(§6) Human tumor cells (5×10^6) or tumor tissue (30-50 mg) were implanted s.c. flank in nu/nu mice (Charles River Laboratories, Wilmington, Mass.). When tumor grew to a specified size, treatment was started by every-other day×5 with 6 hr i.v.-infusion, unless otherwise indicated. Tumor volume was measured with calipers in three dimensions (length×width×height or width). Body-weight changes and lethality were monitored every other day.

[4] = system: MX-1 mammary carcinoma xenograft; details: MX-1, i.p., ref 19 (Table 4)
CCRF-CEM/VBL = assay: Relative potency in vitro, very highly resistant MDR cells; format: cell-based, human; details: Homo sapiens, CCRF-CEM, read-out: CCRF-CEM/VBL IC50 in μM
Experimental: as §3

[5] = system: A549 lung carcinoma xenograft; assay: Human tumor xenograft in nude mice; format: in vivo; details: A549, i.v. infusion
Experimental: as §4, §5, §6

[6] = system: PC-3 prostate adenocarcinoma xenograft; assay: Human tumor xenograft in nude mice; format: in vivo; details: PC-3, i.v. infusion
Experimental: as §4, §5, §6

[7] = system: MCF-7 human mammary adenocarcinoma; assay: Tumor cell growth inhibition in vitro; format: cell-based; details: Homo sapiens, MCF7, MCF-7; read-out: IC50
Experimental: as §1

CCRF-CEM/VBL1000 = assay: Cell growth inhibition, resistant subline; format: cell-based; details: Homo sapiens
Experimental: as §2, §3

## CC[C@]1(O)C[C@@H]2CN(CCc3c([nH]c4ccccc34)[C@@](C(=O)OC)(c3cc4c(cc3OC)N(C)[C@H]3[C@@](O)(C(=O)OC)[C@H](OC(C)=O)[C@]5(CC)C=CCN6CC[C@]43[C@@H]65)C2)C1 [Vinblastine, vinblastine sulfate, reference compound]
MCF-7/Adr
  IC50: 25 nM
UL-3-B/Taxol
  IC50: 3.1 nM
[1]
  IC50: 0.37 nM
[2]
  Therapeutic Effect Rank Order: dEpoB>>VP-16, Taxol>VBL, Adriamycin
[3]; K562, i.v. infusion, FIG. 3 & 4
  Therapeutic Effect Rank Order: dEpoB>>>VBL> Taxol> Adriamycin
[3]; K562, dEpoB 30 mg/kg, Taxol 20 mg/kg 6 hr i.v. infusion, Adriamycin 3 mg/kg, vinblastine 2.5 mg/kg i.v., every other day from day 20 (FIG. 36)
  therapeutic effect: only partial curative or remissive effects
[4]
  Therapeutic Effect Rank Order: dEpoB>Camptothecin>Taxol>VBL, EpoB
CCRF-CEM/VBL
  IC50: 2.02 µM
[5]
  Therapeutic Effect Rank Order: Taxol, dEpoB, VBL>VP-16
[6]
  Therapeutic Effect Rank Order: Taxol, VBL>dEpoB>>VP-16
[7]
  IC50: 9.4 nM
CCRF-CEM/VBL1000
  IC50: 974 nM
